# Test results reported in ChEMBL document CHEMBL1201862, “PubChem BioAssay data set” (2004).
# Activity calls are given as the source filed them.
# How the values were obtained:
# [1] = HEp-2 cell cytotoxicity, dose response, cytotoxicity control for RSV inhibitor project, HTS (AID 2410); type: functional; conditions: human respiratory syncytial virus
# cells [2] = assay: cells
# Leucine aminopeptidase = molecular target: T1, Leucine aminopeptidase (Plasmodium falciparum 3D7, UniProt Q8IL11); assay: P. falciparum M17LAP inhibitors, primary screen, biochemical, fluorogenic H-Leu-NHMec substrate, 1536-well (AID 1619); type: functional
# T1 sequence (Q8IL11 whole entry): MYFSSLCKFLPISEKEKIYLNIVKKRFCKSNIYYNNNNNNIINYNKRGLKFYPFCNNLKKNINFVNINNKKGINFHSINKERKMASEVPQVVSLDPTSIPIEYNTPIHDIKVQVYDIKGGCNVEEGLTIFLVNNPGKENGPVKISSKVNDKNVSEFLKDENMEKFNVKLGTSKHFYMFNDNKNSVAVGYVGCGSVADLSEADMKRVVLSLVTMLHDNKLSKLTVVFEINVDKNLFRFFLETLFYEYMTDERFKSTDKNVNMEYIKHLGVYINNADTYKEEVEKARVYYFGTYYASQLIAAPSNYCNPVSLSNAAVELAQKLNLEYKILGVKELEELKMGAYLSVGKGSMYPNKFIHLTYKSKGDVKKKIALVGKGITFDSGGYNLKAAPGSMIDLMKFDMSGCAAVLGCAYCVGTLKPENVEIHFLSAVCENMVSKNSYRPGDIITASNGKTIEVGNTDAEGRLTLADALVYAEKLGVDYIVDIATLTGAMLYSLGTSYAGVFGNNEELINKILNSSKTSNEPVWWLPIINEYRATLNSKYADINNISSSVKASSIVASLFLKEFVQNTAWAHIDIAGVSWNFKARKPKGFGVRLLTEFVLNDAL
# Major prion protein = Major prion protein (Homo sapiens, UniProt P04156); type: functional, cell-based
# cells [3] = assay: cells; remark: listed apart in the source
# [4] = cytotoxicity in HEK-293T cells, dose response, cytotoxicity control for BCR NF-kB inhibitor project, luminescence, B-cell screen hits (AID 489021); type: functional, cell-based;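 further: HEK-293T cells carrying an NF-kB luciferase reporter; cells exposed to compound for about 14 hours before viability readout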
# Vero = assay: cells; type: functional; conditions: Chlorocebus sabaeus
# Melanocortin receptor 4 = Melanocortin receptor 4 (Homo sapiens, UniProt P32245); type: functional, cell-based;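 further: Cell-based assay with luminescence read-out, confirmatory dose-response testing for agonist activity of biased ligands at MC4R; human U2OS cells with tagged receptor and beta-arrestin; potency of agonists that increase receptor coupling to beta-arrestin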
# [5] = inhibitors of SNCA 5'UTR-driven reporter translation, confirmation, H4 neuroglioma cells, luminescence (AID 1988); type: functional, cell-based
# [6] = Luminescence Cell-Based Dose Response HTS to Identify Inhibitors of 5'UTR Stem-Loop Driven Prion Protein mRNA Translation in H4 Neuroglioblastoma Cells. [Related pubchem assays: 1827 (Project Summary), 1813 (Primary HTS)]; type: functional
# [7] = inhibitors of firefly luciferase expression or activity, dose response, H4 neuroglioma cells, luminescence (AID 1990); type: functional, cell-based
# [8] = A Cell Based Secondary Assay To Explore Cytotoxicity of Compounds that Sensitize Mycobacterium Tuberculosis to Beta-Lactam Antibiotics.; type: functional
# [9] = molecular target: T2, Heat shock factor protein 1 (Mus musculus, UniProt P38532); assay: inhibition of MG132-induced HSE-luciferase signal, confirmation, cell-based, NIH3T3, luminescence, dose retest (AID 2382); type: functional;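 further: NIH3T3 fibroblasts with HSF1-driven luciferase reporter stressed by proteasome inhibitor MG132; luminescence from HSF1-driven luciferase expression after 8 hours of MG132 stress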
# T2 sequence (P38532 whole entry): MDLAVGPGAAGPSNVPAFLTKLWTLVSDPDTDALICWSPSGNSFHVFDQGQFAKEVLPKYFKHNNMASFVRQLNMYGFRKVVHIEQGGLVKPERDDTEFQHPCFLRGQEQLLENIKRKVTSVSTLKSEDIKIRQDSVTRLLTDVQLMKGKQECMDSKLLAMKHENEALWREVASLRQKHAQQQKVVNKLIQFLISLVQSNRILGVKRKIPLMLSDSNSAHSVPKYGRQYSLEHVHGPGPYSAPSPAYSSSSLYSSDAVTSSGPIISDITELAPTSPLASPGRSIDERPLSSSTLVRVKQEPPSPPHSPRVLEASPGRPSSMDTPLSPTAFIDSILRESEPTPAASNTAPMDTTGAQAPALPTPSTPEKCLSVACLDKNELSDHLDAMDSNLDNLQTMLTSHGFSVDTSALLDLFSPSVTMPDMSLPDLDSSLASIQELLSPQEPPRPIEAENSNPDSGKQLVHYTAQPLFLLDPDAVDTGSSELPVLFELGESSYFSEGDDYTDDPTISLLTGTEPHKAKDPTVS
# [10] = molecular target: Heat shock protein HSP 90-alpha (Homo sapiens, UniProt P07900); type: functional, organism-based
# [11] = molecular target: Glyceraldehyde-3-phosphate dehydrogenase (Homo sapiens, UniProt P04406)
# [12] = molecular target: T3, Alkaline phosphatase, tissue-nonspecific isozyme (Homo sapiens, UniProt P05186); assay: human TNAP enzyme inhibitors, SAR follow-up, biochemical, luminescent, dose response (AID 1056)
# T3 sequence (P05186 whole entry): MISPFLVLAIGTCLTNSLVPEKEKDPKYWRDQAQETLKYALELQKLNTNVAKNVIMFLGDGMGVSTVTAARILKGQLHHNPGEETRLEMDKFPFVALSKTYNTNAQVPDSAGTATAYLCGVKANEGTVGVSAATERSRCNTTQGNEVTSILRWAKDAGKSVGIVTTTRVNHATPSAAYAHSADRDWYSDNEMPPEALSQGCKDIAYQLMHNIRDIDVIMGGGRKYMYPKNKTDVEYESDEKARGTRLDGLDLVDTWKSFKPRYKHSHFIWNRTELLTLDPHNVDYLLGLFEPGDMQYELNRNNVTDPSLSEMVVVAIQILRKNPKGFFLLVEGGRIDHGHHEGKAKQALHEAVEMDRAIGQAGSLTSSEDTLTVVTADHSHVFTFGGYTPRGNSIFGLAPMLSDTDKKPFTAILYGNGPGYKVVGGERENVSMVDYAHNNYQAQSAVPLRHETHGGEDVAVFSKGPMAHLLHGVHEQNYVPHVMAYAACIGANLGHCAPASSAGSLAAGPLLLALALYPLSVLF
# [13] = NIH-3T3 fibroblast cytotoxicity, dose response, cytotoxicity control, cell-based, fluorescence, Alamar Blue, secondary assay (AID 2327); type: functional;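 further: NIH-3T3 mouse fibroblasts cultured with fluconazole at 8 µg/mL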
# [14] = C. albicans growth with fluconazole, confirmation, fluorescence, retest (AID 2467); type: functional, cell-based
# [15] = cytotoxicity toward NIH3T3 fibroblasts, dose response, counter-screen, cell-based, ATP luminescence, mouse fibroblasts (AID 2010); type: functional;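 further: cells exposed to compound for about 90 hours before reading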
# [16] = inhibitors of intracellular T. cruzi replication, confirmation, NIH3T3 host cells, beta-gal luminescence (AID 2044); type: functional, cell-based;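 further: intracellular parasites grown in NIH/3T3 mouse fibroblasts as host cells; luminescent beta-galactosidase reporter signal from transgenic T. cruzi replicating inside host cells; inhibitors lower the luminescence signal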
# [17] = molecular target: Induced myeloid leukemia cell differentiation protein Mcl-1 (Homo sapiens, UniProt Q07820); type: functional
# [18] = molecular target: T4, Carboxy-terminal domain RNA polymerase II polypeptide A small phosphatase 1 (Homo sapiens, UniProt Q9GZU7); assay: inhibitors of CTDSP1, concentration-response testing, biochemical assay, absorbance-based, actives from ultra-high-throughput screening (AID 540297); type: functional
# T4 sequence (Q9GZU7 whole entry): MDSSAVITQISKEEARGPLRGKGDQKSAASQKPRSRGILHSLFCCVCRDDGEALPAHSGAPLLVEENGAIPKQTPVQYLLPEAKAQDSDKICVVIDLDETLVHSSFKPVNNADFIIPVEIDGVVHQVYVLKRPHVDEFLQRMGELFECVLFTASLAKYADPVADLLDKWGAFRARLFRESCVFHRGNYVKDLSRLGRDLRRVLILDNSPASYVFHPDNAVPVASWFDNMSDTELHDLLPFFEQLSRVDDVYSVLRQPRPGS
# [19] = off-target signal loss in HeLa-CEM21 co-culture – HeLa F-luc CTL cells, cherry-picked, counter-screen for HIV-1 Env fusion inhibitor project, dose response (AID 652040); type: functional, cell-based;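 further: potency for signal decrease marking cytotoxic or nonspecific inhibition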
# [20] = ZM109 Env clade C HIV-1 fusion inhibitors, dose response, HeLa effector, CEM target cells, luciferase, cherry-pick (AID 652058); type: functional, cell-based
# [21] = inhibitors of HIV Env-driven cell fusion, dose response, cherry-pick (AID 652057); type: functional, cell-based
# [22] = inhibitors of clade B AD8 Env fusion, dose response, cell-based, cherry-pick (AID 652062); type: functional;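 further: luciferase signal from cell-cell fusion driven by HIV-1 clade B AD8 Env; potency is for inhibitors of fusion seen as a drop in luminescence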
# [23] = control 3'UTR Renilla luciferase suppression, dose response, counter-screen for Shn3 inhibitor project, cell-based, Clone20-Shn3RL, cherry-picked (AID 624133); type: functional
# Cytochrome P450 3A4 = Cytochrome P450 3A4 (Homo sapiens, UniProt P08684);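 further: CYP3A4 tested as one member of a cytochrome P450 panel screen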
# [24] = Shn3 3'UTR reporter inhibitors, dose response, cell-based, Clone20 osteoblasts, firefly luciferase, cherry-picked (AID 624132); type: functional;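 further: firefly luciferase luminescence from reporter carrying the Shn3 3'UTR in osteoblasts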
# [25] = HepG2 cell cytotoxicity, dose response, cytotoxicity control for Shn3 inhibitor project, CellTiter-Glo, cherry-picked (AID 624134); type: functional, cell-based
# Paired box protein Pax-8 = Paired box protein Pax-8 (Homo sapiens, UniProt Q06710); assay: inhibitors of PAX8-driven TPO luciferase reporter, dose response, RMG-I cells, cherry-pick (AID 687027); type: functional, cell-based;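 further: luciferase reporter driven by Pax8 target thyroperoxidase promoter measured by SteadyGlo luminescence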
# [26] = NIH:OVCAR-3 ovarian cancer cell cytotoxicity, dose response, PAX8 inhibitor project, plate reader, dry powder samples (AID 743044); type: functional, cell-based
compound,measurement,setting,value
O=C(O)c1cccc(NC(=S)NC(=O)c2ccc(-c3ccc(Cl)cc3)o2)c1,CC50,[1],27.8 µM (active)
same,IC50,cells [2],11.4 µM (active)
O=C(O)c1cccc(C(=O)Cc2ccccc2)c1,IC50,Leucine aminopeptidase,17.5 µM (active)
O=C(CN1C(=O)c2ccccc2S1(=O)=O)NCCSCc1ccco1,IC50,Leucine aminopeptidase,16.2 µM (active)
CCc1nc(SCC(=O)Nc2nc3c(s2)CCCC3)c2ccccc2n1,IC50,Major prion protein,6.97 µM (active)
same,IC50,cells [3],> 138 µM (inactive)
COc1ccc2[nH]c(C(=O)Nc3ccc(C)c(F)c3)cc2c1,IC50,Major prion protein,10.5 µM (inactive)
same,IC50,cells [3],> 138 µM (inactive)
C=CCN1C(=O)NC(=O)/C(=C(\C)NC(C)c2ccccc2)C1=O (configuration not stated),IC50,[4],> 80 µM (inactive)
Cc1ccc(C(=O)Cn2c(C(=O)/C=C/c3ccccc3)nc3ccccc32)cc1,CC50,Vero,16.4 µM (active)
same,EC50,Melanocortin receptor 4,> 89.2 µM (inactive)
COc1cccc(/C=C2/SC(=S)N(CCCC(=O)Nc3ccc(O)cc3)C2=O)c1,IC50,[4],29 µM (inactive)
same,EC50,[5],16.3 µM (active)
same,EC50,[6],8.15 µM (active)
same,EC50,Melanocortin receptor 4,> 89.2 µM (inactive)
same,EC50,[7],6.72 µM (active)
CC(C)(C)c1nn(-c2ccccc2)c2nc(O)c(CNc3ccc4c(c3)OCCO4)cc12,CC50,[8],> 40 µM (active)
same,EC50,[9],83.3 µM (active)
same,AC50,[10],8.3 µM (active)
NNC(=O)c1cc(-c2ccc(Cl)c(Cl)c2Cl)n[nH]1,IC50,[11],> 10 µM (inconclusive)
same,IC50,[12],0.633 µM (active)
Cn1nc(-c2ccc(Cl)cc2)c2cc(C(=O)N3CCCC3)sc21,IC50,[4],> 80 µM (inactive)
Oc1ccc(N2CCN(c3ncnc4sc(-c5ccccc5)cc34)CC2)cc1,EC50,[13],> 160 µM (inactive)
same,EC50,[14],1.21 µM (active)
same,EC50,[15],> 60 µM (not active)
same,EC50,Melanocortin receptor 4,> 89.2 µM (inactive)
same,EC50,[16],3.78 µM (active)
same,IC50,[17],1.43 µM (active)
Cn1c(=O)cc(OCCCC(=O)NCc2ccccn2)c2ccccc21,IC50,[4],> 80 µM (inactive)
COc1ccccc1NC(=O)Nc1ccc2c(c1)CCC2,CC50,[1],46.2 µM (active)
same,IC50,cells [2],40.5 µM (active)
Cn1c(=O)c2nc(CNCc3ccccc3Cl)[nH]c2n(C)c1=O,CC50,[8],> 40 µM (active)
Cc1ccc(C2C(C#N)=C(N)SC(N)=C2C#N)cc1,IC50,Major prion protein,1.86 µM (active)
same,IC50,cells [3],> 138 µM (inactive)
COc1ccccc1OCCOc1ccc(/C=C2\C(=N)N3N=C(S(C)(=O)=O)SC3=NC2=O)cc1,CC50,[1],22.5 µM (active)
same,IC50,[18],3.6 µM (active)
CCOC(=O)[C@@H]1[C@H]2COc3ccc(Br)cc3[C@@H]2N2C(=O)N(c3ccccc3)C(=O)[C@@]12C,AC50,[19],5.09 µM (active)
same,AC50,[20],6.14 µM (active)
same,AC50,[21],2.15 µM (active)
same,AC50,[22],22.9 µM (active)
CN(C)S(=O)(=O)Oc1ccsc1C(=O)Nc1ccc(C(F)(F)F)cc1,CC50,[8],> 40 µM (active)
CC1(C)CC(=O)c2c(n[nH]c2-c2cccs2)C1,IC50,[11],> 10 µM (inconclusive)
same,IC50,[12],5.65 µM (active)
O=C(Nc1nnc(SCC(=O)N2CCCCC2)s1)c1cccs1,IC50,Leucine aminopeptidase,30.4 µM (active)
CCN(C(=O)c1cc2cc3ccc(C)cc3nc2o1)c1ccc(OC)cc1,CC50,[1],> 50 µM (active)
same,IC50,cells [2],33 µM (active)
COC(=O)c1ccc(C)c(NC(=O)CN2C(=O)c3ccccc3S2(=O)=O)c1,IC50,Leucine aminopeptidase,10 µM (active)
Cc1cc2ncn(CC(=O)c3ccc(O)c(O)c3)c2cc1C,IC50,[12],> 100 µM (inactive)
Fc1cccc(Cc2c(-c3ccco3)nc3ccc(Br)cn23)c1,IC50,Major prion protein,6.29 µM (active)
same,IC50,cells [3],> 138 µM (inactive)
NC(c1csc(NC(=O)Nc2cccc(Cl)c2)n1)C1CCCCC1 (configuration not stated),EC50,Melanocortin receptor 4,> 89.2 µM (inactive)
OC1(c2ccc(OC(F)F)cc2)CS/C(=N\c2cccnc2)N1C1CC1 (configuration not stated),AC50,[19],> 70 µM (inactive)
same,AC50,[23],29.4 µM (active)
same,AC50,Cytochrome P450 3A4,0.794 µM (inconclusive)
same,AC50,[24],5.4 µM (active)
same,AC50,[20],36.4 µM (active)
same,AC50,[25],7.56 µM (active)
same,AC50,[22],0.464 µM (active)
COc1cccc(-c2ccc3c(c2)[C@H]2[C@H](CCN2C(=O)NC2CCCCC2)[C@@H](CO)N3C)c1,AC50,Paired box protein Pax-8,10.6 µM (active)
same,AC50,[26],27.1 µM (active)
CC1CCN(C(=O)c2ncn3c2C(=O)N[C@H](C)C3)CC1,AC50,[19],16.1 µM (active)
same,AC50,[20],26.6 µM (active)
same,AC50,[21],4.8 µM (active)
same,AC50,[22],8.4 µM (active)
C[C@H]1CN([C@@H](C)CO)S(=O)(=O)c2ccc(C#Cc3ccc(F)cc3)cc2O[C@@H]1CN(C)C(=O)NC1CCCCC1,AC50,Paired box protein Pax-8,6.32 µM (active)
same,AC50,[26],37.8 µM (active)
CN(C)CCC/N=C/c1c(-c2ccccc2)nn(-c2nc3ccccc3s2)c1O,IC50,[4],> 80 µM (inactive)
